{"source": "paper PMC11027041", "about": "(RSC Advances, 2024)", "key": {"[1]": {"tested_on": "colon cancer cell line HCT-116", "test": "Cell viability assay", "assay_type": "cell-based", "conditions": "Homo sapiens, HCT-116, 72 h, read-out: Antiproliferative IC50 HCT116"}, "HDAC1": {"biological_target": "HDAC1 (Homo sapiens, UniProt Q13547)", "sequence (Q13547 whole entry)": "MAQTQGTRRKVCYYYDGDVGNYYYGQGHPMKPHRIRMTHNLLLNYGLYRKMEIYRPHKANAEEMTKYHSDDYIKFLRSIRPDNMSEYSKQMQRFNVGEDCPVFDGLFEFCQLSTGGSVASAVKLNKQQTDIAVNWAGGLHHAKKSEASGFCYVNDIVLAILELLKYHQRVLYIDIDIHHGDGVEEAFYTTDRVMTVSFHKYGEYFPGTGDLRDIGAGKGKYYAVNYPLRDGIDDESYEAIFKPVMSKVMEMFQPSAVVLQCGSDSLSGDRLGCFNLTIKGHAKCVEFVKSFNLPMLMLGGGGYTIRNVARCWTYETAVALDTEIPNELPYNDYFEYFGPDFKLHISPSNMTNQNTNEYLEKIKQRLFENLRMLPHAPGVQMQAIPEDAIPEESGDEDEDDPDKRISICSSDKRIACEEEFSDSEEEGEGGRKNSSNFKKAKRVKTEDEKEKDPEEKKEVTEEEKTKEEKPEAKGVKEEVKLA", "test": "In vitro HDAC enzyme assay", "assay_type": "biochemical"}, "A549/ATCC": {"tested_on": "A549/ATCC", "test": "NCI-60 antiproliferative screening", "assay_type": "cell-based", "conditions": "Homo sapiens, A549, read-out: percent inhibition"}, "HDAC5": {"biological_target": "HDAC5 (Homo sapiens, UniProt Q9UQL6)", "sequence (Q9UQL6 whole entry)": "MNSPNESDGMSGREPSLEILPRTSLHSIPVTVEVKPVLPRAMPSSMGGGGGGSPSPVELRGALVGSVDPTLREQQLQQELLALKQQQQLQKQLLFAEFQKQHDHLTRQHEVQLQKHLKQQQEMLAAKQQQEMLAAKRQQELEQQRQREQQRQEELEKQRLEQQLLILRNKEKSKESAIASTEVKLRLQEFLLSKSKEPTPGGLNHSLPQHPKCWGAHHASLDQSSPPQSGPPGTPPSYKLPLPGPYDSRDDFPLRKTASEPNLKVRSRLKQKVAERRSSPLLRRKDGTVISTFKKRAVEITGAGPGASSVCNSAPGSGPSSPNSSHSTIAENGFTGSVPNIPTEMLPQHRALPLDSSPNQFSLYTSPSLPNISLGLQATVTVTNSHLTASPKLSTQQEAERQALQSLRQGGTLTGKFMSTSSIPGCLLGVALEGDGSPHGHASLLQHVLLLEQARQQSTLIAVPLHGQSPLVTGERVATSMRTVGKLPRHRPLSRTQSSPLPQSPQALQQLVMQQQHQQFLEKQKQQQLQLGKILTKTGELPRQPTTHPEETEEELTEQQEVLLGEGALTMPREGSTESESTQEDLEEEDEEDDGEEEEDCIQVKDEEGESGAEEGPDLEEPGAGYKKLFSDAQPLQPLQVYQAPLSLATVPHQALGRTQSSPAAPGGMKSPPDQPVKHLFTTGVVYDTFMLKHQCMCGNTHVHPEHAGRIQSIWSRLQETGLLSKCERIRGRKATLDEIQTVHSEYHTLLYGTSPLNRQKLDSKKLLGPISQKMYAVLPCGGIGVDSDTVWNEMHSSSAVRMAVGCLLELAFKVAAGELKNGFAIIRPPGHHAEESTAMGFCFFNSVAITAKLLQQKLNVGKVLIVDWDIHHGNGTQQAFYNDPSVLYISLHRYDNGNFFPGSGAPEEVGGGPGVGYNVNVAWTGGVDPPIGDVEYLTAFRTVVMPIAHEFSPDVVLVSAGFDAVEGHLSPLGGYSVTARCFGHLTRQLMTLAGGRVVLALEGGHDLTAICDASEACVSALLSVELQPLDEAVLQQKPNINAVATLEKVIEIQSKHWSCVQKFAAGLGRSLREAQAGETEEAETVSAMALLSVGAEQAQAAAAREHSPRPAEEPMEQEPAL", "test": "In vitro HDAC enzyme assay", "assay_type": "biochemical"}, "BT-549": {"tested_on": "BT-549", "test": "NCI-60 antiproliferative screening", "assay_type": "cell-based", "conditions": "Homo sapiens, BT-549, read-out: percent inhibition"}, "HDAC3": {"biological_target": "HDAC3 (Homo sapiens, UniProt O15379)", "sequence (O15379 whole entry)": "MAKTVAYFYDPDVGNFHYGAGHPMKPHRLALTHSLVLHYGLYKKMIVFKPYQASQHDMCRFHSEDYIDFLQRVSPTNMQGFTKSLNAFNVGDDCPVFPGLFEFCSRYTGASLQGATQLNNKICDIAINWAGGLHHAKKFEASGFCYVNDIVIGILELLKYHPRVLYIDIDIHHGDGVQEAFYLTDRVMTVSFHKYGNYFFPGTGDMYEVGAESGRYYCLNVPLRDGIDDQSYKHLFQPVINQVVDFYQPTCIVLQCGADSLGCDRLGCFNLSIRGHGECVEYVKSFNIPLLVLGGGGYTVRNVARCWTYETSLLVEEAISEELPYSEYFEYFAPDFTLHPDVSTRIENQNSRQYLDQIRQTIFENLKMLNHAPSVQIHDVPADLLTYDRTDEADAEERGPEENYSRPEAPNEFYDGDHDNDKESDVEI", "sequence (Q9Y618 395-489 partner limits assumed)": "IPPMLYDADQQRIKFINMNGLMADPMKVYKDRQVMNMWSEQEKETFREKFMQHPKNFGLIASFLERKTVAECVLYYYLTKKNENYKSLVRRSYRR", "test": "In vitro HDAC enzyme assay", "assay_type": "biochemical"}, "MALME-3M": {"tested_on": "MALME-3M", "test": "NCI-60 antiproliferative screening", "assay_type": "cell-based", "conditions": "Homo sapiens, read-out: percent inhibition"}, "[2]": {"tested_on": "melanoma cell line SK-MEL-2", "test": "Cell viability assay", "assay_type": "cell-based", "conditions": "Homo sapiens, SK-MEL-2, 72 h, read-out: Antiproliferative IC50 SK-MEL-2"}, "NCI/ADR-RES": {"tested_on": "NCI/ADR-RES", "test": "NCI-60 antiproliferative screening", "assay_type": "cell-based", "conditions": "Homo sapiens, read-out: percent inhibition"}, "U251": {"tested_on": "U251", "test": "NCI-60 antiproliferative screening", "assay_type": "cell-based", "conditions": "Homo sapiens, U-251, read-out: percent inhibition"}, "CCRF-CEM": {"tested_on": "CCRF-CEM", "test": "NCI-60 antiproliferative screening", "assay_type": "cell-based", "conditions": "Homo sapiens, read-out: percent inhibition"}, "UACC-257": {"tested_on": "UACC-257", "test": "NCI-60 antiproliferative screening", "assay_type": "cell-based", "conditions": "Homo sapiens, UACC-257, read-out: percent inhibition"}, "PC-3": {"tested_on": "PC-3", "test": "NCI-60 antiproliferative screening", "assay_type": "cell-based", "conditions": "Homo sapiens, PC-3, read-out: percent inhibition"}, "COLO 205": {"tested_on": "COLO 205", "test": "NCI-60 antiproliferative screening", "assay_type": "cell-based", "conditions": "Homo sapiens, COLO 205, read-out: percent inhibition"}, "SF-295": {"tested_on": "SF-295", "test": "NCI-60 antiproliferative screening", "assay_type": "cell-based", "conditions": "Homo sapiens, SF-295, read-out: percent inhibition"}, "HDAC6": {"biological_target": "HDAC6 (Homo sapiens, UniProt Q9UBN7)", "sequence (Q9UBN7 whole entry)": "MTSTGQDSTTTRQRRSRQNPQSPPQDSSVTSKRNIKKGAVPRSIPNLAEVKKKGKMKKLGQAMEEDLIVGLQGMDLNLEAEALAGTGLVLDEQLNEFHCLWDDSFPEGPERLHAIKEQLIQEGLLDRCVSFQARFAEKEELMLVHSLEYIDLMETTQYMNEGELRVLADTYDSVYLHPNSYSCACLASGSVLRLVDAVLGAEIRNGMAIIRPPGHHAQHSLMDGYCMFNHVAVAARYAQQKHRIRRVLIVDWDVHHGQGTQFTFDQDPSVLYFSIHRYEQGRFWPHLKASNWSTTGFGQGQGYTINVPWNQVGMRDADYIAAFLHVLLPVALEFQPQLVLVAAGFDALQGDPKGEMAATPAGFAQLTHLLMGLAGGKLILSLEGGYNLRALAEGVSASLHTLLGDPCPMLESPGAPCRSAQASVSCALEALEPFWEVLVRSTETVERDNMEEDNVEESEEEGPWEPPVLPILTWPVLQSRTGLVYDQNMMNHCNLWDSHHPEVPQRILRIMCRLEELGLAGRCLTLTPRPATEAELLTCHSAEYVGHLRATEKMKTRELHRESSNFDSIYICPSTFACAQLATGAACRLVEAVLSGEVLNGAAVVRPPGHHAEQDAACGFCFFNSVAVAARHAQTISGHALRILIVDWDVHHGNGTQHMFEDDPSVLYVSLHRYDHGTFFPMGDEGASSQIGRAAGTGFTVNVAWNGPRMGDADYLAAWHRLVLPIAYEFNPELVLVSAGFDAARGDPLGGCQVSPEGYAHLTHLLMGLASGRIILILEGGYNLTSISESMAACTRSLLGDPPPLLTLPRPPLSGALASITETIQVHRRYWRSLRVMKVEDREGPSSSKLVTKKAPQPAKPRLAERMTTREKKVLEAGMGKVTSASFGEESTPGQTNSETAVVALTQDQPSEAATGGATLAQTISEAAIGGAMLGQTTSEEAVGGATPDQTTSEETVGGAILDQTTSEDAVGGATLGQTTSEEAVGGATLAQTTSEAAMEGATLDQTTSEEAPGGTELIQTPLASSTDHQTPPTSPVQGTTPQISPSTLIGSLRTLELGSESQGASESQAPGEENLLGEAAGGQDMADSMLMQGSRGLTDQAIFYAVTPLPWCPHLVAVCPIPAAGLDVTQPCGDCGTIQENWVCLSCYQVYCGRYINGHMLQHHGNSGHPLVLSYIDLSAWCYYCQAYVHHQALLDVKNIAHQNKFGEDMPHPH", "test": "In vitro HDAC enzyme assay", "assay_type": "biochemical"}, "SNB-75": {"tested_on": "SNB-75", "test": "NCI-60 antiproliferative screening", "assay_type": "cell-based", "conditions": "Homo sapiens, SNB-75, read-out: percent inhibition"}, "SR": {"tested_on": "SR", "test": "NCI-60 antiproliferative screening", "assay_type": "cell-based", "conditions": "Homo sapiens, read-out: percent inhibition"}, "NCI-H226": {"tested_on": "NCI-H226", "test": "NCI-60 antiproliferative screening", "assay_type": "cell-based", "conditions": "Homo sapiens, NCI-H226, read-out: percent inhibition"}, "NCI-H322M": {"tested_on": "NCI-H322M", "test": "NCI-60 antiproliferative screening", "assay_type": "cell-based", "conditions": "Homo sapiens, read-out: percent inhibition"}, "SF-268": {"tested_on": "SF-268", "test": "NCI-60 antiproliferative screening", "assay_type": "cell-based", "conditions": "Homo sapiens, SF-268, read-out: percent inhibition"}, "DU-145": {"tested_on": "DU-145", "test": "NCI-60 antiproliferative screening", "assay_type": "cell-based", "conditions": "Homo sapiens, DU-145, read-out: percent inhibition"}, "SK-MEL-28": {"tested_on": "SK-MEL-28", "test": "NCI-60 antiproliferative screening", "assay_type": "cell-based", "conditions": "Homo sapiens, SK-MEL-28, read-out: percent inhibition"}, "LOX IMVI": {"tested_on": "LOX IMVI", "test": "NCI-60 antiproliferative screening", "assay_type": "cell-based", "conditions": "Homo sapiens, read-out: percent inhibition"}, "HDAC11": {"biological_target": "HDAC11 (Homo sapiens, UniProt Q96DB2)", "sequence (Q96DB2 whole entry)": "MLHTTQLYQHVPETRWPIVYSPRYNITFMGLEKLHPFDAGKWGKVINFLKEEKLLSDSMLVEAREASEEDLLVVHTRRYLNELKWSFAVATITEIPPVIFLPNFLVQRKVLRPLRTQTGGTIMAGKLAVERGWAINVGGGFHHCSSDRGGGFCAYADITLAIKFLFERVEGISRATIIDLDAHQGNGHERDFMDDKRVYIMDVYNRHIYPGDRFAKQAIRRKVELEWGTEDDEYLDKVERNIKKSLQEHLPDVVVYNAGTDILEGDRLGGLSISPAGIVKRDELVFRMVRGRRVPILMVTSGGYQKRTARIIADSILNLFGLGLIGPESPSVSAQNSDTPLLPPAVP", "test": "In vitro HDAC enzyme assay", "assay_type": "biochemical"}, "HOP-92": {"tested_on": "HOP-92", "test": "NCI-60 antiproliferative screening", "assay_type": "cell-based", "conditions": "Homo sapiens, HOP-92, read-out: percent inhibition"}, "OVCAR-8": {"tested_on": "OVCAR-8", "test": "NCI-60 antiproliferative screening", "assay_type": "cell-based", "conditions": "Homo sapiens, OVCAR-8, read-out: percent inhibition"}, "UO-31": {"tested_on": "UO-31", "test": "NCI-60 antiproliferative screening", "assay_type": "cell-based", "conditions": "Homo sapiens, UO-31, read-out: percent inhibition"}, "IGROV1": {"tested_on": "IGROV1", "test": "NCI-60 antiproliferative screening", "assay_type": "cell-based", "conditions": "Homo sapiens, IGROV-1, read-out: percent inhibition"}, "M14": {"tested_on": "M14", "test": "NCI-60 antiproliferative screening", "assay_type": "cell-based", "conditions": "Homo sapiens, M14, read-out: percent inhibition"}, "ACHN": {"tested_on": "ACHN", "test": "NCI-60 antiproliferative screening", "assay_type": "cell-based", "conditions": "Homo sapiens, read-out: percent inhibition"}, "KM12": {"tested_on": "KM12", "test": "NCI-60 antiproliferative screening", "assay_type": "cell-based", "conditions": "Homo sapiens, KM12, read-out: percent inhibition"}, "NCI-H460": {"tested_on": "NCI-H460", "test": "NCI-60 antiproliferative screening", "assay_type": "cell-based", "conditions": "Homo sapiens, NCI-H460, read-out: percent inhibition"}, "HOP-62": {"tested_on": "HOP-62", "test": "NCI-60 antiproliferative screening", "assay_type": "cell-based", "conditions": "Homo sapiens, HOP-62, read-out: percent inhibition"}, "HDAC7": {"biological_target": "HDAC7 (Homo sapiens, UniProt Q8WUI4)", "sequence (Q8WUI4 whole entry)": "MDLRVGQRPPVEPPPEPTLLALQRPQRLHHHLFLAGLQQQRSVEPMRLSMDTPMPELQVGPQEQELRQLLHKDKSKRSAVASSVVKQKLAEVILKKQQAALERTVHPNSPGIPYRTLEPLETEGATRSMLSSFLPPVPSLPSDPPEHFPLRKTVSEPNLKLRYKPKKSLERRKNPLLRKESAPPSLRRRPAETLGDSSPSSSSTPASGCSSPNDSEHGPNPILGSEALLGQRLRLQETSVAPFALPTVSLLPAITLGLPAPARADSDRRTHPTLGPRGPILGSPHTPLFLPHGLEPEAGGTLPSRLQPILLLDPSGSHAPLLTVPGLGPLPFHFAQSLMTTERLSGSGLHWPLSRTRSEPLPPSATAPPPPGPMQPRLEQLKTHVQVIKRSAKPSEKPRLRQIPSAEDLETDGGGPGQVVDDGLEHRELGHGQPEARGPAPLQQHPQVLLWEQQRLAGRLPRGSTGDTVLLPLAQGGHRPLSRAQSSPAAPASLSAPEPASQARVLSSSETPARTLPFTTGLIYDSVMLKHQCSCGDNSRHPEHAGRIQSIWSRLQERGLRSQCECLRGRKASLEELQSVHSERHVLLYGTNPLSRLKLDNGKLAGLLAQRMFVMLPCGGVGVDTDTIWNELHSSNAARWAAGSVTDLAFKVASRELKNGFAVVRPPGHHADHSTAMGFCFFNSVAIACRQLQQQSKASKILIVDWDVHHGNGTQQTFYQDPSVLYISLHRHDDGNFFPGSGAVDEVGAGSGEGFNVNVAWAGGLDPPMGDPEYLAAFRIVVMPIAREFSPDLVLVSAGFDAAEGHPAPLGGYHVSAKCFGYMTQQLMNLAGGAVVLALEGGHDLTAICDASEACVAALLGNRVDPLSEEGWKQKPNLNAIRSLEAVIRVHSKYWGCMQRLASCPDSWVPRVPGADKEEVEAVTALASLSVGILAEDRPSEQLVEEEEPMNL", "test": "In vitro HDAC enzyme assay", "assay_type": "biochemical"}, "NCI-H23": {"tested_on": "NCI-H23", "test": "NCI-60 antiproliferative screening", "assay_type": "cell-based", "conditions": "Homo sapiens, NCI-H23, read-out: percent inhibition"}, "HCC-2998": {"tested_on": "HCC-2998", "test": "NCI-60 antiproliferative screening", "assay_type": "cell-based", "conditions": "Homo sapiens, HCC 2998, read-out: percent inhibition"}, "MCF7": {"tested_on": "MCF7", "test": "NCI-60 antiproliferative screening", "assay_type": "cell-based", "conditions": "Homo sapiens, MCF7, read-out: percent inhibition"}, "NCI-H522": {"tested_on": "NCI-H522", "test": "NCI-60 antiproliferative screening", "assay_type": "cell-based", "conditions": "Homo sapiens, NCI-H522, read-out: percent inhibition"}, "MDA-MB-435": {"tested_on": "MDA-MB-435", "test": "NCI-60 antiproliferative screening", "assay_type": "cell-based", "conditions": "Homo sapiens, MDA-MB-435, read-out: percent inhibition"}, "K-562": {"tested_on": "K-562", "test": "NCI-60 antiproliferative screening", "assay_type": "cell-based", "conditions": "Homo sapiens, K562, read-out: percent inhibition"}, "OVCAR-5": {"tested_on": "OVCAR-5", "test": "NCI-60 antiproliferative screening", "assay_type": "cell-based", "conditions": "Homo sapiens, OVCAR-5, read-out: percent inhibition"}, "MDA-MB-468": {"tested_on": "MDA-MB-468", "test": "NCI-60 antiproliferative screening", "assay_type": "cell-based", "conditions": "Homo sapiens, MDA-MB-468, read-out: percent inhibition"}}, "data": [{"compound": "COc1ccc(CN2[C@@H](C(=O)NCCCCCCC(=O)NO)Cc3c([nH]c4ccccc34)[C@@H]2C2CC2)cc1", "note": "[Compound 13d, (1S,3R)-1-Cyclopropyl-N-(7-(hydroxyamino)-7-oxoheptyl)-2-(4-methoxybenzyl)-2,3,4,9-tetrahydro-1H-pyrido[3,4-b]indole-3-carboxamide]", "values": [{"measurement": "IC50", "setting": "[1]", "result": "1540 ± 30", "unit": "nM"}, {"measurement": "IC50", "setting": "HDAC1", "result": "8.73 ± 0.46", "unit": "nM"}, {"measurement": "inhibition at 0.5 µM", "setting": "HDAC1; read-out: Inhibition% (inhibition rate, IR) against HDAC1, at a concentration of 500 nM, duplicate", "result": 99.2, "unit": "%"}, {"measurement": "inhibition at 10 µM", "setting": "A549/ATCC", "result": 82.7, "unit": "%"}, {"measurement": "IC50", "setting": "HDAC5", "result": "> 50000", "unit": "nM"}, {"measurement": "activity for HDAC5 (in words)", "setting": "HDAC5", "result": "no activity"}, {"measurement": "inhibition at 10 µM", "setting": "BT-549", "result": 74.5, "unit": "%"}, {"measurement": "IC50", "setting": "HDAC3", "result": "32.1 ± 1.44", "unit": "nM"}, {"measurement": "inhibition at 10 µM", "setting": "MALME-3M", "result": 98.5, "unit": "%"}, {"measurement": "IC50", "setting": "[2]", "result": "480 ± 10", "unit": "nM"}, {"measurement": "inhibition at 10 µM", "setting": "NCI/ADR-RES", "result": 38, "unit": "%"}, {"measurement": "inhibition at 10 µM", "setting": "U251", "result": 100, "unit": "%"}, {"measurement": "inhibition at 10 µM", "setting": "CCRF-CEM", "result": 80.3, "unit": "%"}, {"measurement": "inhibition at 10 µM", "setting": "UACC-257", "result": 90.1, "unit": "%"}, {"measurement": "inhibition at 10 µM", "setting": "PC-3", "result": 80.9, "unit": "%"}, {"measurement": "inhibition at 10 µM", "setting": "COLO 205", "result": 100, "unit": "%"}, {"measurement": "inhibition at 10 µM", "setting": "SF-295", "result": 100, "unit": "%"}, {"measurement": "IC50", "setting": "HDAC6", "result": "4.5 ± 0.21", "unit": "nM"}, {"measurement": "inhibition at 10 µM", "setting": "SNB-75", "result": 89.8, "unit": "%"}, {"measurement": "inhibition at 10 µM", "setting": "SR", "result": 84, "unit": "%"}, {"measurement": "inhibition at 10 µM", "setting": "NCI-H226", "result": 71.9, "unit": "%"}, {"measurement": "inhibition at 10 µM", "setting": "NCI-H322M", "result": 90.5, "unit": "%"}, {"measurement": "inhibition at 10 µM", "setting": "SF-268", "result": 85.5, "unit": "%"}, {"measurement": "inhibition at 10 µM", "setting": "DU-145", "result": 90.6, "unit": "%"}, {"measurement": "inhibition at 10 µM", "setting": "SK-MEL-28", "result": 90.2, "unit": "%"}, {"measurement": "inhibition at 10 µM", "setting": "LOX IMVI", "result": 100, "unit": "%"}, {"measurement": "IC50", "setting": "HDAC11", "result": "1800 ± 106", "unit": "nM"}, {"measurement": "inhibition of HDAC11 (in words)", "setting": "HDAC11", "result": "weak inhibition"}, {"measurement": "inhibition at 10 µM", "setting": "HOP-92", "result": 100, "unit": "%"}, {"measurement": "inhibition at 10 µM", "setting": "OVCAR-8", "result": 97.3, "unit": "%"}, {"measurement": "inhibition at 10 µM", "setting": "UO-31", "result": 92.3, "unit": "%"}, {"measurement": "inhibition at 10 µM", "setting": "IGROV1", "result": 100, "unit": "%"}, {"measurement": "inhibition at 10 µM", "setting": "M14", "result": 82.4, "unit": "%"}, {"measurement": "inhibition at 10 µM", "setting": "ACHN", "result": 99.3, "unit": "%"}, {"measurement": "inhibition at 10 µM", "setting": "KM12", "result": 87.5, "unit": "%"}, {"measurement": "inhibition at 10 µM", "setting": "NCI-H460", "result": 93.6, "unit": "%"}, {"measurement": "inhibition at 10 µM", "setting": "HOP-62", "result": 86, "unit": "%"}, {"measurement": "IC50", "setting": "HDAC7", "result": "> 50000", "unit": "nM"}, {"measurement": "activity for HDAC7 (in words)", "setting": "HDAC7", "result": "no activity"}, {"measurement": "inhibition at 10 µM", "setting": "NCI-H23", "result": 100, "unit": "%"}, {"measurement": "inhibition at 10 µM", "setting": "HCC-2998", "result": 100, "unit": "%"}, {"measurement": "inhibition at 10 µM", "setting": "MCF7", "result": 93.6, "unit": "%"}, {"measurement": "inhibition at 10 µM", "setting": "NCI-H522", "result": 100, "unit": "%"}, {"measurement": "inhibition at 10 µM", "setting": "MDA-MB-435", "result": 100, "unit": "%"}, {"measurement": "inhibition at 10 µM", "setting": "K-562", "result": 92.5, "unit": "%"}, {"measurement": "inhibition at 10 µM", "setting": "OVCAR-5", "result": 100, "unit": "%"}, {"measurement": "inhibition at 10 µM", "setting": "MDA-MB-468", "result": 95.9, "unit": "%"}]}]}
